What was measured:
[1] = test system: mouse peritoneal macrophages; experiment: Mouse macrophage monokine inhibition (chondrocyte bioassay); assay type: cell-based; conditions: 24 h, substantially pure Z-isomeric form, 3-5 separate experiments in triplicate, read-out: ED50 (suppression of monokine release)
Method: Purified IL-1, [Schnyder et al., J. Immunol. […] [c.f. […] J. Rheumatol.
Culture media are diluted 1:1 (v:v) with fresh medium and added to confluent rabbit chondrocytes. […] activity in the chondrocyte culture medium is monitored after a further two days.

monocytes = experiment: Effect on monocyte adherence; assay type: cell-based, human; conditions: 4 h; DNA and LDH of adherent monocytes
Method: Monocytes of freshly harvested human mononuclear cells are prepared in presence of the compound to be tested or a vehicle. After 4 h the medium is aspirated and the cell monolayer is washed as usual. The adherent monocytes are then lysed using digitonin in water, and the amount of DNA and the activity of the cytosol enzyme LDH is measured.

Calvaria halves = experiment: Prevention of bone resorption: calcium release from calvaria; assay type: cell-based, Swiss albino mice; conditions: Mus musculus
Method: Calvaria halves (frontal and parietal parts) from 4-5 day Swiss albino mice are cultured on stainless steel grids in BGJ bone tissue culture medium, supplemented with 1 mg/ml BSA at the interphase of medium and gas in a humidified atmosphere (95% air/5% CO2 ) at 37° C. - c.f. Reynolds et al. in "Organ Culture in Biomed. Res." eds. Balls and Mamichendam, Cambridge University Press, p.p. 355-366 (1976).
Influence of test substance at varying concentrations on calcium release into :he test medium in the presence of calcium release stimulators [PGE2, LPS or […] (1,25D3)]is determined. For this purpose calcium concentrations are measured in bone culture supernatants obtained from 72 and 144 hour cultures and in TCA extracts of the calvaria at the end of culture by spectrometric methods [Gindler et al., Am. J. Clin. Pathol. 58, 376-382 (1972)]. Activity of lysosomal enzyme N-acetyl-glucose-aminidase in bone culture supernatants and in Triton 100 extracts of calvaria after culture is also determined employing the method of Banerjee and Basu, Biochem. J., 45, 113-118 (1975). Changes in enzyme activity are expressed as μ units/calvarium half and as % release.
(For the calculation of IC50 values the difference between resorption rate in control cultures and resorption in maximally stimulated cultures is taken as 100 %. The IC50 is taken as the concentration of test substance which inhibits maximum resorption by 50 %)

## COC1=Cc2ccccc2/C(=C/C(=O)O)c2ccsc21 [Compound D2, [10-Methoxy-4H-benzo[4,5]cyclohepta[1,2-b]thiophen-4-ylidene]-acetic acid]
[1]
  IC50: ~100 µM
monocytes
  adherence of the monocytes: neither the COMPOUNDS OF THE INVENTION, in particular compound D2, nor the vehicle reduce the adherence of the monocytes
Calvaria halves; in the presence of 1,25D3
  IC50: 38 µM
Calvaria halves; in the presence of LPS
  IC50: 28 µM
Calvaria halves; in the presence of PGE2
  IC50: 22 µM

Source: patent US4956381A, “Treating tissue calcium depletion or degenerative processes in bone or cartilage” (Sandoz Ltd., priority 1987, dated 1990)
